Structures can show the parent of a compound that is named as a salt.
Legend:
[1] = test system: indomethacine induced ulcers; test: Effectiveness against indomethacine-induced ulcers in the rat; format: in vivo, rats; conditions: for inhibition in vivo at 150 mg/kg: dosage 150 mg/kg p.o.; for inhibition in vivo at 75 mg/kg: dosage 75 mg/kg p.o.; for inhibition in vivo at 68 mg/kg: dosage 68 mg/kg p.o.
Procedure: 2. Effectiveness against indomethacineinduced ulcers in the rate (Modified test procedure according to
To at least 6 male rats, having a body-weight of from 170 to 220 g, dosages of the test compounds are administered orally in an amount of 0.5 ml of a suspension medium per 100 g animal body-weight. The animals of the blank control group receive the corresponding amount by volume of the suspension medium only. One hour after application of the test compounds, a dosage of 20 mg per kg of indomethacine contained in an amount of 0.5 ml of a suspension per 100 g animal body-weight, are orally applied to each animal for producing ulcers. 24 hours after the application of indomethacine, the animals are sacrificed.
The mean value and the standard deviation of the numbers of ulcers is calculated, and subsequently the inhibiting activity of the test compounds and a standard compound are calculated as percent inhibition compared with the blank control group.

[2] = test system: secretion in the stomach; test: Effect on the secretion in the stomach of narcotized rats (determination of the pH-value); format: in vivo; conditions: for inhibition in vivo at 300 mg/kg: po, dosage 300 mg/kg p.o., narcotized rats, acetylcholine control = 100
Procedure: 3. Effect on the secretion in the stomach of narcotized rats (determinationof the pH-value)
The test is performed on narcotized (urethane narcosis) male rats, having a body-weight of 200-230 g. For this purpose N/4000-sodium hydroxide solution is perfused into the stomachs of rats at a rate of 1 ml per minute by means of a cardia- and pylorus-catheter. The pH value of the perfusate, which leaves the stomach by way of the pylorus catheter, is determined by means of a one-rod measuring system, and is continuously registered.
In order to perform a comparative control test, after a pre-run period of 20 minutes, 10 mg per kg of acetylcholine are applied intraperitoneously. The resulting comparative control value is defined as being 100.
For evaluation, the surface-integral is calculated numerically with the aid of the rule of Simpson. The degree of inhibition of the secretion is calculated from the difference between the surfaces before and after the application of the test compound.

[3] = in vivo; conditions: mouse, po, single dose p.o., unfed NMRI mice, 7 days, read-out: Toxicity LD50 p.o.
Procedure: The acute 7-day-toxicity is determined after a single application per os in white NMRI-mice which had not been fed. The calculation of the LD50 is carried out by probitanalysis by means of electronic data processing (see L. Cavalli-Sforza, Gustav Fischer-Verlag, Stuttgart (1964), Grundbegriffe der Biometrie, p. 153).

[4] = at a low dosage, footnote of Table I
[5] = Rattus norvegicus, po, 1 h before 20 mg/kg indomethacine, 24 h

| Structure (SMILES) | LD50 at 168 h [3] | inhibition in vivo at 150 mg/kg [1, 5] | inhibition in vivo at 300 mg/kg ([2]; Rattus norvegicus) | inhibition in vivo at 75 mg/kg [1, 5] | further results |
| --- | --- | --- | --- | --- | --- |
| CN1[C@@H]2CC[C@H]1C[C@@H](OC(=O)C(CO)c1ccccc1)C2 (stereo partly shown) [A, atropine sulfate, reference compound] |  |  |  |  | inhibition in vivo at 12 mg/kg ([1]; Rattus norvegicus, po, dosage 12 mg/kg p.o., 1 h before 20 mg/kg indomethacine, 24 h): 26%; effect on the ulcer (in words) [1, 4]: does not have a sufficiently; inhibition in vivo at 0.5 mg/kg ([2]; Rattus norvegicus, ip, read-out: Inhibition of secretion in the stomach, % inhibition): 100%; inhibition of the secretion in the stomach (in words) [2, 4]: strong inhibition |
| CC(=O)NCC(O)CN(C)c1ccc(Cl)cc1 (stereo not shown) [Compound 1, N1-acetyl-N2-methyl-N2-(4-chlorophenyl)-1,3-diaminopropan-2-ol] | 2260 mg/kg | 33% | 0% |  |  |
| CCCCCC(=O)NCC(O)CN(C)c1ccc(F)cc1 (stereo not shown) [Compound 2, N1-hexanoyl-N2-methyl-N2-(4-fluorophenyl)-1,3-diaminopropan-2-ol] | 4320 mg/kg | 44% | 0% |  |  |
| CCCCCCCCCCCCCCCC(=O)NCC(O)CN(C)c1ccc(Cl)cc1 (stereo not shown) [Compound 3, N1-hexadecanoyl-N2-methyl-N2-(4-chlorophenyl)-1,3-diaminopropan-2-ol] | > 6810 mg/kg | 40% | 0% |  |  |
| CN(CC(O)CNC(=O)C1CC1)c1ccccc1 (stereo not shown) [Compound 4, N1-cyclopropylcarbonyl-N2-methyl-N2-phenyl-1,3-diaminopropan-2-ol] | > 1470 mg/kg | 36% | 0% |  |  |
| CN(CC(O)CNC(=O)C1CCCCC1)c1ccccc1 (stereo not shown) [Compound 5, N1-cyclohexylcarbonyl-N2-methyl-N2-phenyl-1,3-diaminopropan-2-ol] | 3200 mg/kg | 47% | 0% |  |  |
| CN(CC(O)CNC(=O)C1CCCCC1)c1ccc(F)cc1 (stereo not shown) [Compound 6, N1-cyclohexylcarbonyl-N2-methyl-N2-(4-fluorophenyl)-1,3-diaminopropan-2-ol] | > 1470 mg/kg | 40% | 0% |  |  |
| CCCN(CC(O)CNC(=O)C1CCCCC1)c1ccccc1 (stereo not shown) [Compound 7, N1-cyclohexylcarbonyl-N2-propyl-N2-phenyl-1,3-diaminopropan-2-ol] | > 1470 mg/kg | 34% | 0% |  |  |
| CN(CC(O)CNC(=O)Cc1ccccc1)c1ccc(Cl)cc1 (stereo not shown) [Compound 8, N1-phenacetyl-N2-methyl-N2-(4-chlorophenyl)-1,3-diaminopropan-2-ol] | 3860 mg/kg |  | 0% | 26% |  |
| CN(CC(O)CNC(=O)C=Cc1ccccc1)c1ccc(Cl)cc1 (stereo not shown) [Compound 9, N1-cinnamoyl-N2-methyl-N2-(4-chlorophenyl)-1,3-diaminopropan-2-ol] | > 6810 mg/kg |  | 0% |  | inhibition in vivo at 68 mg/kg [1, 5]: 32% |
| COc1ccc(C=CC(=O)NCC(O)CN(C)c2ccc(Cl)cc2)cc1OC (stereo not shown) [Compound 10, N1-(3,4-dimethoxycinnamoyl)-N2-methyl-N2-(4-chlorophenyl)-1,3-diaminopropan-2-ol] | > 6810 mg/kg |  | 0% | 32% |  |
| CN(CC(O)CNC(=O)c1ccccn1)c1ccc(Cl)cc1 (stereo not shown) [Compound 11, N1-picolinoyl-N2-methyl-N2-(4-chlorophenyl)-1,3-diaminopropan-2-ol] | 3300 mg/kg |  | 0% |  | inhibition in vivo at 68 mg/kg [1, 5]: 71% |
| CN(CC(O)CNC(=O)c1ccco1)c1ccc(Cl)c(Cl)c1 (stereo not shown) [Compound 12, N1-furoyl-N2-methyl-N2-(3,4-dichlorophenyl)-1,3-diaminopropan-2-ol] | > 1470 mg/kg |  | 0% | 29% |  |
| COCCN(CC(O)CNC(=O)c1ccco1)c1ccc(Cl)cc1 (stereo not shown) [Compound 13, N1-furoyl-N2-methoxyethyl-N2-(4-chlorophenyl)-1,3-diaminopropan-2-ol] | > 1470 mg/kg |  | 0% | 35% |  |
| COc1ccc(C(=O)NCC(O)CNc2ccccc2Cl)cc1OC (stereo not shown) [Compound 14, N1-(3,4-dimethoxybenzoyl)-N2-(2-chlorophenyl)-1,3-diaminopropan-2-ol] | > 6700 mg/kg |  | 0% | 33% |  |
| COc1ccc(C(=O)NCC(O)CN(C)c2ccc(F)cc2)cc1OC (stereo not shown) [Compound 15, N1-(3,4-dimethoxybenzoyl)-N2-methyl-N2-(4-fluorophenyl)-1,3-diaminopropan-2-ol] | > 6810 mg/kg |  | 0% | 32% |  |
| COc1ccc(C(=O)NCC(O)CN(C)c2ccc(Cl)c(Cl)c2)cc1OC (stereo not shown) [Compound 16, N1-(3,4-dimethoxybenzoyl)-N2-methyl-N2-(3,4-dichlorophenyl)-1,3-diaminopropan-2-ol] | > 6810 mg/kg |  | 0% | 38% |  |
| CCCN(CC(O)CNC(=O)c1ccc(OC)c(OC)c1)c1ccc(Cl)cc1 (stereo not shown) [Compound 17, N1-(3,4-dimethoxybenzoyl)-N2-propyl-N2-(4-chlorophenyl)-1,3-diaminopropan-2-ol] | > 6810 mg/kg |  | 0% | 34% |  |
| CN(CC(O)CNC(=O)c1ccccc1F)c1ccc(Cl)c(Cl)c1 (stereo not shown) [Compound 18, N1-(2-fluorobenzoyl)-N2-methyl-N2-(3,4-dichlorophenyl)-1,3-diaminopropan-2-ol] | > 1470 mg/kg |  | 0% | 33% |  |
| CC(C)c1ccc(N(C)CC(O)CNC(=O)c2ccco2)cc1 (stereo not shown) [Compound 19, N1-furoyl-N2-methyl-N2-(4-isopropylphenyl)-1,3-diaminopropan-2-ol] | > 1470 mg/kg |  | 0% | 31% |  |

Source: US4191770A, “N1 -acyl-N2 -phenyldiaminopropanols and pharmaceutical compositions thereof” (Kali-Chemie Pharma GmbH, priority 1977, dated 1980)
